Measurements published in patent publication US4920103A, “Modifications of mycinose and 3-O-demethylmycinose in tylosin-type macrolides” (Eli Lilly and Company, priority 1986, dated 1990).
Values after ≈ are worked out from the molar mass of the structure shown. Like-named read-outs stand apart in the source and are kept apart here.

Assays:
[1] = test system: Streptococcus pyogenes C203; experiment: Protection of mice experimentally infected with Streptococcus pyogenes C203; format: in vivo; details: Streptococcus pyogenes, doses given 1 and 4 hours postinfection, read-out: ED50
Procedure: The formula 1 compounds have shown in vivo antimicrobial activity against experimentally-induced infections in laboratory animals. When two doses of test compound were administered to mice experimentally infected with Streptococcus pyogenes C203, the activity observed was measured as an ED50 value [effective dose in mg/kg to protect 50% of the test animals: see Warren Wick, et al., J. Bacteriol. 81, 233-235 (1961)].
^a mg/kg × 2; doses given 1 and 4 hours postinfection

[2] = test system: Staphylococcus aureus X1.1; experiment: MIC, standard agar-dilution assay, S. aureus X1.1; format: cell-based
Procedure: (§1) The MIC's in Table II were determined by standard agar-dilution assays. The MIC's in Table III were obtained using conventional broth-dilution microtiter tests.

[3] = test system: Streptococcus pneumoniae Park I; experiment: MIC, standard agar-dilution assay, S. pneumoniae Park I; format: cell-based; details: Streptococcus pneumoniae
Procedure: as §1

[4] = test system: Klebsiella pneumoniae X68; experiment: MIC, standard agar-dilution assay, K. pneumoniae X68; format: cell-based; details: agar-dilution, read-out: MIC
Procedure: as §1

Escherichia coli EC14 = experiment: MIC, standard agar-dilution assay, E. coli EC14; format: cell-based; details: agar-dilution, read-out: MIC
Procedure: as §1

[5] = test system: Staphylococcus aureus S13E; experiment: MIC, standard agar-dilution assay, S. aureus S13E; format: cell-based
Procedure: as §1

[6] = test system: Streptococcus pyogenes C203; experiment: MIC, standard agar-dilution assay, S. pyogenes C203; format: cell-based; details: Streptococcus pyogenes, C203
Procedure: as §1

[7] = test system: Streptococcus Group D 2041; experiment: MIC, standard agar-dilution assay, Streptococcus Group D 2041; format: cell-based; details: GROUPD2041
Procedure: as §1

[8] = test system: Pseudomonas aeruginosa X239; experiment: MIC, standard agar-dilution assay, P. aeruginosa X239; format: cell-based; details: agar-dilution, read-out: MIC
Procedure: as §1

[9] = test system: Staphylococcus aureus V41; experiment: MIC, standard agar-dilution assay, S. aureus V41; format: cell-based; details: Staphylococcus aureus, V41
Procedure: as §1

[10] = test system: Staphylococcus aureus X400; experiment: MIC, standard agar-dilution assay, S. aureus X400; format: cell-based
Procedure: as §1

[11] = test system: Staphylococcus epidermidis EPI1; experiment: MIC, standard agar-dilution assay, S. epidermidis EPI1; format: cell-based
Procedure: as §1

[12] = test system: Staphylococcus epidermidis 222; experiment: MIC, standard agar-dilution assay, S. epidermidis 222; format: cell-based
Procedure: as §1

[13] = test system: Streptococcus Group D X66; experiment: MIC, standard agar-dilution assay, Streptococcus Group D X66; format: cell-based
Procedure: as §1

[14] = test system: Haemophilus influenzae 76; experiment: MIC, standard agar-dilution assay, H. influenzae 76; format: cell-based
Procedure: as §1

[15] = test system: Haemophilus influenzae C.L.; experiment: MIC, standard agar-dilution assay, H. influenzae C.L.; format: cell-based
Procedure: as §1

[16] = agar-dilution, ampicillin-resistant strain, read-out: MIC
[17] = agar-dilution, ampicillin-sensitive strain, read-out: MIC

Structure (SMILES) | ED50 ([1]; C203, oral) [mg/kg] | ED50 ([1]; C203, sc, subcutaneous) [mg/kg] | MIC [2] [µg/mL] | MIC [3] [µg/mL] | MIC [4] [µg/mL] | MIC (Escherichia coli EC14) [µg/mL] | MIC [5] [µg/mL] | MIC [6] [µg/mL] | MIC [7] [µg/mL] | MIC [8] [µg/mL] | MIC [9] [µg/mL] | MIC [10] [µg/mL] | MIC [11] [µg/mL] | MIC [12] [µg/mL] | MIC [13] [µg/mL] | MIC [14, 16] [µg/mL] | MIC [15, 17] [µg/mL] | further results
CCC1OC(=O)CC(O)C(C)C(OC2OC(C)C(O)C(N(C)C)C2O)C(CCOc2ccccc2)CC(C)C(=O)C=CC(C)=CC1COC1OC(C)C(=O)C(OC)C1OC (centres unmarked) [Compound 2, 4"-Oxo-20-DH-20-O-phenyl-desmycosin] | 85.6 | > 10 | 0.5 (≈ 0.59 µM) | 4 (≈ 4.72 µM) | > 128 | > 128 | 0.5 (≈ 0.59 µM) | 2 (≈ 2.36 µM) | 8 (≈ 9.43 µM) | > 128 | 0.5 (≈ 0.59 µM) | 0.5 (≈ 0.59 µM) | 1 (≈ 1.18 µM) | 0.25 (≈ 0.295 µM) | 4 (≈ 4.72 µM) |  |  | MIC [14]: 64 µg/mL (≈ 75.5 µM); MIC [15]: 64 µg/mL (≈ 75.5 µM)
CCC1OC(=O)CC(O)C(C)C(OC2OC(C)C(O)C(N(C)C)C2O)C(CCOc2ccccc2)CC(C)C(=O)C=CC(C)=CC1COC1OC(C)C(OS(C)(=O)=O)C(OC)C1OC (centres unmarked) [Compound 15, 4"-O-Methanesulfonyl-20-DH-20-O-Phenyl-desmycosin] | 29.3 | > 10 | 2 (≈ 2.15 µM) |  | > 128 | > 128 | 2 (≈ 2.15 µM) | 4 (≈ 4.31 µM) | 32 (≈ 34.5 µM) | > 128 | 2 (≈ 2.15 µM) | 2 (≈ 2.15 µM) | 2 (≈ 2.15 µM) | 1 (≈ 1.08 µM) | 16 (≈ 17.2 µM) | 128 (≈ 138 µM) | 128 (≈ 138 µM) | MIC ([3]; agar-dilution, read-out: MIC): 8 µg/mL (≈ 8.62 µM)
CCC1OC(=O)CC(O)C(C)C(OC2OC(C)C(O)C(N(C)C)C2O)C(CCOc2ccccc2)CC(C)C(=O)C=CC(C)=CC1COC1OC(C)C(N=[N+]=[N-])C(OC)C1OC (centres unmarked) [Compound 25, 4"-Azido-4"-deoxy-20-DH-20-O-phenyl-desmycosin] | 64 | > 10 | 4 (≈ 4.57 µM) | 8 (≈ 9.14 µM) | > 128 | > 128 | 4 (≈ 4.57 µM) | 8 (≈ 9.14 µM) | 64 (≈ 73.1 µM) | > 128 | 4 (≈ 4.57 µM) | 4 (≈ 4.57 µM) | 4 (≈ 4.57 µM) | 4 (≈ 4.57 µM) |  | > 128 | > 128 | MIC ([13]; agar-dilution, read-out: MIC): 16 µg/mL (≈ 18.3 µM)
CCC1OC(=O)CC(O)C(C)C(OC2OC(C)C(O)C(N(C)C)C2O)C(CCOc2ccccc2)CC(C)C(=O)C=CC(C)=CC1COC1OC(C)C(N2CCCCC2)C(OC)C1OC (centres unmarked) [Compound 42, 4"-Deoxy-20-DH-20-O-phenyl-4"-(piperidin-1-yl)desmycosin] | > 100 | > 10 | 4 (≈ 4.36 µM) | 2 (≈ 2.18 µM) | > 128 | > 128 | 2 (≈ 2.18 µM) | 2 (≈ 2.18 µM) | 32 (≈ 34.9 µM) | > 128 | 4 (≈ 4.36 µM) | 4 (≈ 4.36 µM) | 4 (≈ 4.36 µM) | 2 (≈ 2.18 µM) | 16 (≈ 17.4 µM) | > 128 | > 128 | 
CCC1OC(=O)CC(O)C(C)C(OC2OC(C)C(O)C(N(C)C)C2O)C(CCOc2ccccc2)CC(C)C(=O)C=CC(C)=CC1COC1OC(C)C(OCCOC)C(OC)C1OC (centres unmarked) [Compound 44, 20-DH-4"-(2-Methoxyethoxy)-20-O-phenyl-desmycosin] |  |  | 2 (≈ 2.2 µM) | 4 (≈ 4.4 µM) | > 128 | > 128 | 2 (≈ 2.2 µM) | 4 (≈ 4.4 µM) | 32 (≈ 35.2 µM) | > 128 | 2 (≈ 2.2 µM) | 2 (≈ 2.2 µM) | 2 (≈ 2.2 µM) | 2 (≈ 2.2 µM) | 8 (≈ 8.81 µM) | > 128 | > 128 | 
CCC1OC(=O)CC(O)C(C)C(OC2OC(C)C(O)C(N(C)C)C2O)C(CCOc2ccccc2)CC(C)C(=O)C=CC(C)=CC1COC1OC(C)C(NCc2ccccc2)C(OC)C1OC (centres unmarked) [Compound 47, 4"-Benzylamino-4"-deoxy-20-DH-20-O-phenyl-desmycosin] | 70.7 | > 10 | 2 (≈ 2.13 µM) | 2 (≈ 2.13 µM) | > 128 | > 128 | 2 (≈ 2.13 µM) | 2 (≈ 2.13 µM) | 32 (≈ 34.1 µM) | > 128 | 2 (≈ 2.13 µM) | 2 (≈ 2.13 µM) | 2 (≈ 2.13 µM) | 2 (≈ 2.13 µM) | 8 (≈ 8.52 µM) | 128 (≈ 136 µM) | 128 (≈ 136 µM) | 
CCCN(CCC)C1C(C)OC(OCC2C=C(C)C=CC(=O)C(C)CC(CCOc3ccccc3)C(OC3OC(C)C(O)C(N(C)C)C3O)C(C)C(O)CC(=O)OC2CC)C(OC)C1OC (centres unmarked) [Compound 48, 4"-Deoxy-20-DH-20-O-phenyl-4"-[di-(n-propyl)amino]desmycosin] |  |  | 16 (≈ 17.1 µM) | 4 (≈ 4.29 µM) | > 128 | > 128 | 16 (≈ 17.1 µM) | 8 (≈ 8.57 µM) | 16 (≈ 17.1 µM) | > 128 | 16 (≈ 17.1 µM) | 16 (≈ 17.1 µM) | 16 (≈ 17.1 µM) | 16 (≈ 17.1 µM) | 16 (≈ 17.1 µM) | > 128 | > 128 | 
CCC1OC(=O)CC(O)C(C)C(OC2OC(C)C(O)C(N(C)C)C2O)C(CCOc2ccccc2)CC(C)C(=O)C=CC(C)=CC1COC1OC(C)C(OC)C(O)C1OC (centres unmarked) [Compound 50, 4"-O-Methyl-20-DH-20-O-phenyl-lactenocin] | 75.3 | > 10 | 0.5 (≈ 0.588 µM) | 8 (≈ 9.41 µM) | > 128 | > 128 | 0.5 (≈ 0.588 µM) | 4 (≈ 4.71 µM) | 32 (≈ 37.6 µM) | > 128 | 0.5 (≈ 0.588 µM) | 0.5 (≈ 0.588 µM) | 0.5 (≈ 0.588 µM) | 0.25 (≈ 0.294 µM) | 16 (≈ 18.8 µM) |  | 128 (≈ 151 µM) | 
CCC1OC(=O)CC(O)C(C)C(OC2OC(C)C(O)C(N(C)C)C2O)C(CCOc2ccccc2)CC(C)C(=O)C=CC(C)=CC1COC1OC(C)C=C(OC)C1OC (centres unmarked) [Compound 54, 3",4"-Anhydro-20-DH-20-O-phenyl-desmycosin] |  |  | 1 (≈ 1.2 µM) | 4 (≈ 4.81 µM) | > 128 | > 128 | 1 (≈ 1.2 µM) | 4 (≈ 4.81 µM) | 8 (≈ 9.61 µM) | > 128 | 1 (≈ 1.2 µM) | 0.5 (≈ 0.601 µM) | 1 (≈ 1.2 µM) | 0.25 (≈ 0.3 µM) | 8 (≈ 9.61 µM) | 128 (≈ 154 µM) | 128 (≈ 154 µM) | 
